{
  "source": "patent US20240270741A1",
  "about": "(Cogent Biosciences, Inc., priority 2023, published 2024)",
  "data": [
    {"target": "FGFR2 (Homo sapiens, UniProt P21802)", "sequence (P21802 399-821 limits assumed)": "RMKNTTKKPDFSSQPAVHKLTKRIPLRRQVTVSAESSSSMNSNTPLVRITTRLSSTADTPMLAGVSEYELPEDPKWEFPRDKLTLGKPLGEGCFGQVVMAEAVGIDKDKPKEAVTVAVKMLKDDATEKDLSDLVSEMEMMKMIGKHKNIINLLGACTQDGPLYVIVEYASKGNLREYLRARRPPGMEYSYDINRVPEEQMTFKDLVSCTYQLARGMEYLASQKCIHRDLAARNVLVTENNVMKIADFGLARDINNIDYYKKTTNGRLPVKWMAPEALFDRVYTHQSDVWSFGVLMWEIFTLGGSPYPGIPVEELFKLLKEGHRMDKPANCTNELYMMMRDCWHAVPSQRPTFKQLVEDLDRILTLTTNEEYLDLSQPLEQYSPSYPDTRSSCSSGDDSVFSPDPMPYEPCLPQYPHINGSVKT", "assay": "FGFR wild type enzyme assay (HTRF KinEASE-TK), FGFR2", "details": "Enz FGFR2 (nM), FGFR2 wild type enzyme", "units": {"IC50": "nM"}, "values": [
      {"smiles": "CC(=O)N1CCC[C@H](n2ncc(-c3cc(Sc4ccc(F)cn4)c4c(C#N)cnn4c3)c2C)C1", "note": "[Example 308, (S)-6-(1-(1-acetylpiperidin-3-yl)-5-methyl-1H-pyrazol-4-yl)-4-((5-fluoropyridin-2-yl)thio)pyrazolo[1,5-a]pyridine-3-carbonitrile]", "IC50": 7},
      {"smiles": "Cc1c(-c2cc(Sc3ccc(F)cn3)c3c(C#N)cnn3c2)cnn1[C@H]1C[C@H]2CC[C@@H](C1)N2C(=O)CO", "note": "[Example 309, 4-((5-fluoropyridin-2-yl)thio)-6-(1-((1R,3r,5S)-8-(2-hydroxyacetyl)-8-azabicyclo[3.2.1]octan-3-yl)-5-methyl-1H-pyrazol-4-yl)pyrazolo[1,5-a]pyridine-3-carbonitrile]", "IC50": 6},
      {"smiles": "Cc1c(-c2cc(Sc3ccc(F)cn3)c3c(C#N)cnn3c2)cnn1[C@@H]1C[C@H]2CC[C@@H](C1)N2C(=O)CO", "note": "[Example 310, 4-((5-fluoropyridin-2-y)thio)-6-(1-((1R,3s,5S)-8-(2-hydroxyacetyl)-8-azabicyclo[3.2.1]octan-3-yl)-5-methyl-1H-pyrazol-4-yl)pyrazolo[1,5-a]pyridine-3-carobnitrile]", "IC50": 8},
      {"smiles": "CN[C@H]1CC[C@@H](n2ncc(-c3cc(Sc4ccccn4)c4c(C#N)cnn4c3)c2C)CC1", "note": "[Example 311, 6-(5-methyl-1-((1s,4s)-4-(methylamino)cyclohexyl)-1H-pyrazol-4-yl)-4-(pyridin-2-ylthio)pyrazolo[1,5-a]pyridine-3-carbonitrile]", "IC50": 2},
      {"smiles": "Cc1nn([C@H]2CC[C@@H](O)CC2)cc1-c1cc(Sc2ncccc2F)c2c(C#N)cnn2c1", "note": "[Example 312, 4-((3-fluoropyridin-2-yl)thio)-6-(1-((1s,4s)-4-hydroxycyclohexyl)-3-methyl-1H-pyrazol-4-yl)pyrazolo[1,5-a]pyridine-3-carbonitrile]", "IC50": 1.5},
      {"smiles": "Cc1nn([C@H]2CC[C@@H](O)CC2)cc1-c1cc(Sc2ccccc2C#N)c2c(C#N)cnn2c1", "note": "[Example 313, 4-((2-cyanophenyl)thio)-6-(1-((1s,4s)-4-hydroxycyclohexyl)-3-methyl-1H-pyrazol-4-yl)pyrazolo[1,5-a]pyridine-3-carbonitrile]", "IC50": 1},
      {"smiles": "CC(=O)N[C@H]1CC[C@@H](n2cc(-c3cc(Sc4ccccn4)c4c(C#N)cnn4c3)cn2)CC1", "note": "[Example 314, N-((1s,4s)-4-(4-(3-cyano-4-(pyridin-2-ylthio)pyrazolo[1,5-a]pyridin-6-yl)-1H-pyrazol-1-yl)cyclohexyl)acetamide]", "IC50": 2},
      {"smiles": "CC(=O)N[C@H]1CC[C@@H](n2cc(-c3cc(Sc4ncccc4C)c4c(C#N)cnn4c3)cn2)CC1", "note": "[Example 315, N-((1s,4s)-4-(4-(3-cyano-4-((3-methylpyridin-2-yl)thio)pyrazolo[1,5-a]pyridin-6-yl)-1H-pyrazol-1-yl)cyclohexyl)acetamide]", "IC50": 3},
      {"smiles": "CC(=O)N[C@H]1CC[C@@H](n2cc(-c3cc(Sc4ccccc4C#N)c4c(C#N)cnn4c3)cn2)CC1", "note": "[Example 316, N-((1s,4s)-4-(4-(3-cyano-4-((2-cyanophenyl)thio)pyrazolo [1,5-a]pyridin-6-yl)-1H-pyrazol-1-yl)cyclohexyl)acetamide]", "IC50": 0.4},
      {"smiles": "Cc1c(-c2cc(Sc3ccc(F)cc3C#N)c3c(C#N)cnn3c2)cnn1[C@H]1CC[C@@H](N(C)CCO)CC1", "note": "[Example 317, 4-((2-cyano-4-fluorophenyl)thio)-6-(1-((1s,4s)-4-((2-hydroxyethyl)(methyl)ami-no)cyclohexyl)-5-methyl-1H-pyrazol-4-yl)pyrazolo[1,5-a]pyridine-3-carbonitrile]", "IC50": 0.5},
      {"smiles": "Cc1c(-c2cc(Sc3ccccc3C#N)c3c(C#N)cnn3c2)cnn1[C@H]1CC[C@@H](N(C)CCO)CC1", "note": "[Example 318, 4-((2-cyanophenyl)thio)-6-(1-((1s,4s)-4-((2-hydroxyethyl)(methyl)ami-no)cyclohexyl)-5-methyl-1H-pyrazol-4-yl)pyrazolo[1,5-a]pyridine-3-carbonitrile]", "IC50": 0.4},
      {"smiles": "CN[C@]1(C)CC[C@H](n2ncc(-c3cc(Sc4ccccc4C#N)c4c(C#N)cnn4c3)c2C)CC1", "note": "[Example 319, 4-((2-cyanophenyl)thio)-6-(5-methyl-1-((1s,4s)-4-methyl-4-(methylamino)cyclohexyl)-1H-pyrazol-4-yl)pyrazolo[1,5-a]pyridine-3-carbonitrile]", "IC50": 0.3},
      {"smiles": "CN[C@]1(C)CC[C@@H](n2ncc(-c3cc(Sc4ccccc4C#N)c4c(C#N)cnn4c3)c2C)CC1", "note": "[Example 320, 4-((2-cyanophenyl)thio)-6-(5-methyl-1-((1r,4r)-4-methyl-4-(methylamino)cyclohexyl)-1H-pyrazol-4-yl)pyrazolo[1,5-a]pyridine-3-carbonitirle]", "IC50": 0.3},
      {"smiles": "CC(=O)N1CC[C@]2(CC[C@@H](n3ncc(-c4cc(Sc5ccccc5C#N)c5c(C#N)cnn5c4)c3C)CC2)C1", "note": "[Example 321, 6-(1-((5r,8r)-2-acetyl-2-azaspiro[4.5]decan-8-yl)-5-methyl-1H-pyrazol-4-yl)-4-((2-cyanophenyl)thio)pyrazolo [1,5-a]pyridine-3-carbonitrile]", "IC50": 1},
      {"smiles": "CC(=O)N1CC[C@]2(CC[C@H](n3ncc(-c4cc(Sc5ccccc5C#N)c5c(C#N)cnn5c4)c3C)CC2)C1", "note": "[Example 322, 6-(1-((5s,8s)-2-acetyl-2-azaspiro[4.5]decan-8-yl)-5-methyl-1H-pyrazol-4-yl)-4-((2-cyanophenyl)thio)pyrazolo [1,5-a]pyridine-3-carbonitrile]", "IC50": 0.6},
      {"smiles": "Cc1c(-c2cc(Sc3ccc(F)cc3C#N)c3c(C#N)cnn3c2)cnn1[C@H]1CC[C@](C)(O)CC1", "note": "[Example 323, 4-((2-cyano-4-fluorophenyl)thio)-6-(1-((1r,4r)-4-hydroxy-4-methylcyclohexyl)-5-methyl-1H-pyrazol-4-yl)pyrazolo[1,5-a]pyridine-3-carbonitrile]", "IC50": 1},
      {"smiles": "Cc1c(-c2cc(Sc3ccc(F)cc3C#N)c3c(C#N)cnn3c2)cnn1[C@H]1CC[C@@](C)(O)CC1", "note": "[Example 324, 4-((2-cyano-4-fluorophenyl)thio)-6-(1-((1s,4s)-4-hydroxy-4-methylcyclohexyl)-5-methyl-1H-pyrazol-4-y)pyrazolo[1,5-a]pyridine-3-carbonitrile]", "IC50": 1},
      {"smiles": "Cc1c(-c2cc(Sc3ccc(F)cc3C#N)c3c(C#N)cnn3c2)cnn1[C@H]1CC[C@@](C)(N)CC1", "note": "[Example 325, 6-(1-((1s,4s)-4-amino-4-methylcyclohexyl)-5-methyl-1H-pyrazol-4-yl)-4-((2-cyano-4-fluorophenyl)thio)pyrazolo [1,5-a]pyridine-3-carbonitrile]", "IC50": 0.5},
      {"smiles": "CN[C@]1(C)CC[C@H](n2ncc(-c3cc(Sc4ccc(F)cc4C#N)c4c(C#N)cnn4c3)c2C)CC1", "note": "[Example 326, 4-((2-cyano-4-fluoorphenyl)thio)-6-(5-methyl-1-((1s,4s)-4-methyl-4-(methylamino)cyclohxyl)-1H-pyrazol-4-eyl)pyrazolo[1,5-a]pyridine-3-carbonitrile]", "IC50": 1},
      {"smiles": "Cc1c(-c2cc(Sc3ccc(F)cc3C#N)c3c(C#N)cnn3c2)cnn1[C@H]1CC[C@@](C)(N(C)C)CC1", "note": "[Example 327, 4-((2-cyano-4-fluorophenyl)thio)-6-(1-((1s,4s)-4-(dimethylamino)-4-methylcyclohexyl)-5-methyl-1H-pyrazol-4-yl)pyrazolo[1,5-a]pyridine-3-carbonitrile]", "IC50": 0.5},
      {"smiles": "Cc1c(-c2cc(Sc3ncc(F)cc3F)c3c(C#N)cnn3c2)cnn1C1CCN(C)CC1", "note": "[Example 328, 4-((3,5-difluoropyridin-2-yl)thio)-6-(5-methyl-1-(1-methylpiperidin-4-yl)-1H-pyrazol-4-yl)pyrazolo[1,5-a]pyridine-3-carbonitrile]", "IC50": 3},
      {"smiles": "Cc1c(-c2cc(Sc3ccc(F)cn3)c3c(C#N)cnn3c2)cnn1C1CCN(C)CC1", "note": "[Example 329, 4-((5-fluoropyridin-2-yl)thio)-6-(5-methyl-1-(1-methylpiperidin-4-yl)-1H-pyrazol-4-yl)pyrazolo[1,5-a]pyridine-3-carbonitrile]", "IC50": 5},
      {"smiles": "Cc1c(-c2cc(Sc3ccc(F)cc3C#N)c3c(C#N)cnn3c2)cnn1C1CCN(C(C)C)CC1", "note": "[Example 330, 4-((2-cyano-4-fluorophenyl)thio)-6-(1-(1-isopropylpiperidin-4-yl)-5-methyl-1H-pyrazol-4-yl)pyrazolo[1,5-a]pyridine-3-carbonitrile]", "IC50": 1},
      {"smiles": "Cc1c(-c2cc(Sc3ccc(F)cc3C#N)c3c(C#N)cnn3c2)cnn1C1CCN(C[C@@H](C)O)CC1", "note": "[Example 331, (R)-4-((2-cyano-4-fluorophenyl)thio)-6-(1-(1-(2-hydroxypropyl)piperidin-4-yl)-5-methyl-1H-pyrazol-4-yl)pyrazolo[1,5-a]pyridine-3-carbonitrile]", "IC50": 1},
      {"smiles": "Cc1c(-c2cc(Sc3ccc(F)cc3C#N)c3c(C#N)cnn3c2)cnn1[C@H]1CCCN(C(=O)CO)C1", "note": "[Example 332, (S)-4-((2-cyano-4-fluorophenyl)thio)-6-(1-(1-(2-hydroxyacetyl)piperidin-3-yl)-5-methyl-1H-pyrazol-4-yl)pyrazolo[1,5-a]pyridine-3-carbonitrile]", "IC50": 1}
    ]},
    {"target": "FGFR2 (Homo sapiens, UniProt P21802)", "assay": "FGFR wild type enzyme assay (HTRF KinEASE-TK), FGFR2", "details": "Enz FGFR2 (nM), FGFR2 wild type enzyme assay", "units": {"IC50": "nM"}, "values": [
      {"smiles": "Cc1c(-c2cc(Sc3ccc(F)cc3C#N)c3c(C#N)cnn3c2)cnn1[C@H]1CCCNC1", "note": "[Example 333, (S)-4-((2-cyano-4-fluorophenyl)thio)-6-(5-methyl-1-(piperidin-3-yl)-1H-pyrazol-4-yl)pyrazolo[1,5-a]pyridine-3-carbonitrile]", "IC50": 1},
      {"smiles": "CC(=O)N1CCC[C@H](n2ncc(-c3cc(Sc4ccc(F)cc4C#N)c4c(C#N)cnn4c3)c2C)C1", "note": "[Example 334, (S)-6-(1-(1-acetylpiperidin-3-yl)-5-methyl-1H-pyrazol-4-yl)-4-((2-cyano-4-fluorophenyl)thio)pyrazolo [1,5-a]pyridine-3-carbonitrile]", "IC50": 1},
      {"smiles": "Cc1c(-c2cc(Sc3ccc(F)cc3C#N)c3c(C#N)cnn3c2)cnn1[C@H]1CCCN(C)C1", "note": "[Example 335, (S)-4-((2-cyano-4-fluorophenyl)thio)-6-(5-methyl-1-(1-methylpiperidin-3-yl)-1H-pyrazol-4-yl)pyrazolo[1,5-a]pyridine-3-carbonitrile]", "IC50": 1}
    ]}
  ]
}
